Where two headings read alike, the source gives them in different places.
Experiments:
Assay type in all cases: cell-based, HIV-1
[1] = tested on: Virus 1 (recombinant generated from plasma of Subject 1 by FPH or RVA); assay: MTT-reduction cell viability drug susceptibility assay, recombinant Virus 1 (FPH or RVA); details: for EC50 / fold resistance: Table 3A; for EC50: read-out: Drug EC50; for fold resistance: relative to WT (HXB2)
Method: (§1) As previously discussed, recombinant virus produced by the method of the present invention may be used in drug sensitivity assays. A suitable drug sensitivity assay is described in Pauwels et al. (1988) and is an MTT-reduction colorimetric cell viability assay. Cells infected with the virus are plated into the wells of tissue culture plates and incubated with the anti-viral drug to be tested. After incubation, MTT (3-(4,5-dimethylthiazol-2-yl)-2,5diphenyltetrazolium bromide) is added to the cell culture. Only live cells produce the blue formazan product after incubation with MTT. This product is detectable by reading the optical absorbance at 540-590 nm, so the absorbance reading gives a measure of the cells which have been protected from the virus by the anti-viral drug. Viral drug resistance results in a decrease in surviving cells and a decrease in absorbance at 540-590 nm.
(§2) In this experiment, plasma from three HIV-1 infected subjects experiencing virological failure on PI-containing therapy regimens was used as the basis for the FPH to generate recombinant virus. […] Virus from Subject 2 had L10I, M46I, I50V and a Lp1′F mutation at the p1/p6 protease cleavage site, all of which are mutations typical of high level APV resistance.
(§3) The LTR was added to the nested products by PMR prior to transfection. The PMR reactions successfully added the LTR sequences to the nested products (FIG. 9). The first round RT-PCR reactions were also used as templates to generate products for RVA by cotransfection with pHXBΔCSPRTC. Triplicate PCR products were cotransfected into MT4 cells with the linearised plasmid pHXBTOPO1, in the case of the PMR products, and with linearised pHXBΔCSPRTC in for the RVA products. Viral cytopathic effect was observed and titratable virus was harvested in the supernatants. No virus was isolated from virus 2 using FPH and only one of the triplicate cultures from virus 3 yielded infectious virus. All of the RVA cultures produced virus.
(§4) In order to determine whether the extra sequences in the FPH recombinants contain determinants of susceptibility, the recombinant viruses were tested against several drugs. Drug susceptibility was determined by the 3-(4,5dimethylthiazol-2-yl)-2,5-diphenyltetrazolium bromide (MTT)-reduction calorimetric cell viability assay described previously (Pauwels et al. 1988; Robinson et al., 2000). Changes in susceptibility were defined as fold increase in IC50 relative to WT (HXB2). Nucleotide sequences were determined using ABI 3700 capillary sequencers and Big Dye terminators. […] Virus 1 also gave a 2.2-fold (Table 3A) or 4-fold (Table 3B) higher susceptibility to IDV and 2.9-fold (Table 3A) or 3.2-fold higher susceptibility to APV when generated by RVA.

[2] = tested on: Virus 2 (recombinant generated from plasma of Subject 2 by RVA); assay: MTT-reduction cell viability drug susceptibility assay, recombinant Virus 2 (RVA); details: for EC50 / fold resistance: Table 3A, Virus 2, method RVA; for fold resistance: relative to WT (HXB2)
Method: as §1, §2, §3, §4

[3] = tested on: Virus 3 (recombinant generated from plasma of Subject 3 by FPH or RVA); assay: MTT-reduction cell viability drug susceptibility assay, recombinant Virus 3 (FPH or RVA); details: for EC50 / fold resistance: Table 3A; for fold resistance: relative to WT (HXB2)
Method: as §1, §2, §3, §4

HXB2 = assay: MTT-reduction cell viability drug susceptibility assay, wild type HXB2 (Table 3A); details: for EC50: HXB2 wild type; for fold resistance: HXB2 wild type (reference)
Method: as §1, §4

[4] = tested on: Virus 3.1, 3.2, 3.3 (recombinants by FPH or RVA); assay: MTT-reduction cell viability drug susceptibility assay, viruses 3.1-3.3 (Table 3B); details: for fold resistance: Table 3B, relative to WT
Method: as §1, §3, §4

[5] = tested on: Virus 4.1, 4.2, 4.3 (recombinants by RVA); assay: MTT-reduction cell viability drug susceptibility assay, viruses 4.1-4.3 (Table 3B); details: for EC50: Human immunodeficiency virus 1, Table 3B; for fold resistance: Table 3B, relative to WT
Method: as §1, §3, §4

[6] = tested on: Virus 5.1 (FPH), 5.2 (RVA); assay: MTT-reduction cell viability drug susceptibility assay, viruses 5.1 and 5.2 (Table 3B); details: for EC50: Human immunodeficiency virus 1, Table 3B; for fold resistance: Table 3B, relative to WT
Method: as §1, §3, §4

[7] = tested on: WT (HXB2) generated by FPH or RVA; assay: MTT-reduction cell viability drug susceptibility assay, WT (Table 3B); details: for EC50: Human immunodeficiency virus 1, HXB2, Table 3B; for fold resistance: Table 3B
Method: as §1, §4

[8] = tested on: recombinant viruses generated by FPH or RVA; assay: Comparison of drug susceptibility of FPH generated and RVA generated viruses; details: two separate experiments (tables 3A and B)
Method: as §1
In order to determine whether the extra sequences in the FPH recombinants contain determinants of susceptibility, the recombinant viruses were tested against several drugs. Drug susceptibility was determined by the 3-(4,5dimethylthiazol-2-yl)-2,5-diphenyltetrazolium bromide (MTT)-reduction calorimetric cell viability assay described previously (Pauwels et al. 1988; Robinson et al., 2000). […] Nucleotide sequences were determined using ABI 3700 capillary sequencers and Big Dye terminators. […]

SMILES: CC(C)c1nc(CN(C)C(=O)N[C@H](C(=O)N[C@@H](Cc2ccccc2)C[C@H](O)[C@H](Cc2ccccc2)NC(=O)OCc2cncs2)C(C)C)cs1 [RTV]
- EC50 ([1]; Virus 1, method FPH): 205 nM
- fold resistance ([1]; Virus 1, method FPH): (3.1) fold
- EC50 ([1]; Virus 1, method RVA): 90.4 nM
- fold resistance ([1]; Virus 1, method RVA): (1.4) fold
- EC50 [2]: 454 nM
- fold resistance [2]: (7.0) fold
- EC50 ([3]; Virus 3, method FPH): 1790 nM
- fold resistance ([3]; Virus 3, method FPH): (27) fold
- EC50 ([3]; Virus 3, method RVA): 1400 nM
- fold resistance ([3]; Virus 3, method RVA): (22) fold
- EC50 (HXB2): 65.1 nM
- fold resistance (HXB2): (1.0) fold

SMILES: CC(C)(C)NC(=O)[C@@H]1C[C@@H]2CCCC[C@@H]2CN1C[C@@H](O)[C@H](Cc1ccccc1)NC(=O)[C@H](CC(N)=O)NC(=O)c1ccc2ccccc2n1 [SQV]
- EC50 ([1]; Virus 1, method FPH): 13.1 nM
- fold resistance ([1]; Virus 1, method FPH): (1.0) fold
- EC50 ([1]; Virus 1, method RVA): 6.56 nM
- fold resistance ([1]; Virus 1, method RVA): (0.5) fold
- EC50 [2]: 9.06 nM
- fold resistance [2]: (0.69) fold
- EC50 ([3]; Virus 3, method FPH): 16.4 nM
- fold resistance ([3]; Virus 3, method FPH): (1.3) fold
- EC50 ([3]; Virus 3, method RVA): 13.7 nM
- fold resistance ([3]; Virus 3, method RVA): (1.0) fold
- EC50 (HXB2): 13.1 nM
- fold resistance (HXB2): (1.0) fold

SMILES: Cc1cn([C@H]2C[C@H](N=[N+]=[N-])[C@@H](CO)O2)c(=O)[nH]c1=O [ZDV, zidovudine]
- fold higher susceptibility when generated by RVA than when generated by FPH ([1]; virus 1, Table 3B experiment): 4.8 fold
- resistance, fold higher than wild-type ([2]; Virus 2 obtained via the RVA, Table 3B experiment): > 84 fold
- difference in susceptibility between the two techniques (RVA vs FPH) ([3]; virus 3, Table 3B experiment): 2.9 fold
- EC50 ([4]; Human immunodeficiency virus 1, Table 3B, Virus 3.1, method FPH, read-out: Drug EC50): 76.1 nM
- EC50 ([4]; Human immunodeficiency virus 1, Table 3B, Virus 3.2, method FPH, read-out: Drug EC50): 65.3 nM
- EC50 ([4]; Human immunodeficiency virus 1, Table 3B, Virus 3.3, method FPH, read-out: Drug EC50): 35.1 nM
- EC50 ([4]; Human immunodeficiency virus 1, read-out: Drug EC50, Table 3B, Virus 3.1, method RVA): 12.3 nM
- fold resistance ([4]; Virus 3.1, method FPH): (2.7) fold
- fold resistance ([4]; Virus 3.1, method RVA): (−2.5) fold
- fold resistance ([4]; Virus 3.2, method FPH): (2.3) fold
- fold resistance ([4]; Virus 3.3, method FPH): (1.2) fold
- EC50 ([5]; Virus 4.1, method RVA): > 5000 nM
- EC50 ([5]; Virus 4.2, method RVA): > 5000 nM
- EC50 ([5]; Virus 4.3, method RVA): > 5000 nM
- fold resistance ([5]; Virus 4.1, method RVA): (>163) fold
- fold resistance ([5]; Virus 4.2, method RVA): (>163) fold
- fold resistance ([5]; Virus 4.3, method RVA): (>163) fold
- EC50 ([6]; Virus 5.1, method FPH): 48.2 nM
- EC50 ([6]; Virus 5.2, method RVA): 16.5 nM
- fold resistance ([6]; Virus 5.1, method FPH): (1.7) fold
- fold resistance ([6]; Virus 5.2, method RVA): (−1.9) fold
- EC50 ([7]; method FPH): 28.3 nM
- EC50 ([7]; method RVA): 30.7 nM
- fold resistance ([7]; method FPH (reference)): (1.0) fold
- fold resistance ([7]; method RVA (reference)): (1.0) fold
- Susceptibility in FPH generated versus RVA generated viruses [8]: lower in the FPH generated than the RVA generated viruses

— patent publication US20040038199A1, “Phenotyping assay and reagents therefor” (priority 2000, published 2004)
